The target of this assay is BACE1 (Homo sapiens, UniProt P56817). As to the kind of experiment: In Vitro Enzymatic BACE FRET (Fluorescence Resonance Energy Transfer) Assay. In kind it is biochemical. The settings on record: read-out: BACE1 FRET assay. The procedure: In Vitro Enzymatic BACE FRET (Fluorescence Resonance Energy Transfer) Assay (Enzyme Assay Data in the Example Tables I, II, III & IV) The assay buffer used in this screen is 0.05 M acetate, pH 4.2, 10% DMSO final, 100 uM genapol (which is a nonionic detergent, below its Critical Micelle Concentration). […] This assay is effectively started by the addition of FRET substrate (50 nM) and the combination is incubated for one hour. The FRET assay is terminated with by addition of Tris buffer, which raises the pH to neutrality, and the fluorescence is determined. The FRET substrate is a peptide with commercially available fluorophore and quencher, on opposite sides of the BACE cleavage site. […]
Chain of BACE1 (P56817 46-501, species assumed): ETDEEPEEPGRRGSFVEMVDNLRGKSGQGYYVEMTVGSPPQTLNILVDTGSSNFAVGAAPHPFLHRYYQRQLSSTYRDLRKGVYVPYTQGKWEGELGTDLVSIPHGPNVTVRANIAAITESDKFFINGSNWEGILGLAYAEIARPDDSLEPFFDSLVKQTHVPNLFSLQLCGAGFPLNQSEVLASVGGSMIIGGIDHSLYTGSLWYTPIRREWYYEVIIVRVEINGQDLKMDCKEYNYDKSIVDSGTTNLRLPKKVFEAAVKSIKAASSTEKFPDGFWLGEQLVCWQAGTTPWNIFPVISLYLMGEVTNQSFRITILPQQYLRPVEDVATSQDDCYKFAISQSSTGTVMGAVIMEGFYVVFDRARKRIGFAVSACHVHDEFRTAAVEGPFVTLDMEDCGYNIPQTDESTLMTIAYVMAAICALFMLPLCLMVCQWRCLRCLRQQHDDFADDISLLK

[1] abbreviates: in vitro BACE FRET enzyme assay, IC50 class symbols.

Like-named read-outs stand apart in the source and are kept apart here. A value given as a limit tells only on which side of the number the result lay.

In the case of `COc1ccc2c(c1)[C@@]1(COC(N)=N1)c1cc(N3CCOCC3)cc(F)c1O2` [compound 304], the IC50 under setting [1] lay in the range of 100 to 1000 nM.

On to `NC1=N[C@@]2(CO1)c1cc(C#CC3CC3)ccc1Oc1ccc(OCC3CCCO3)cc12` (stereo partly drawn) [Example 103, (4S)-2′-(cyclopropylethynyl)-7′-(tetrahydro-2-furanylmethoxy)spiro[1,3-oxazole-4,9′-xanthen]-2-amine], for which the IC50 (Table II) is under 100 nM. For `NC1=N[C@@]2(CO1)c1cc(-c3cncc(Cl)c3)ccc1Oc1cnc(C3=CCOCC3)cc12` [compound 309], under setting [1], the IC50 was under 100 nM. In the case of `NC1=N[C@]2(CO1)c1cc(OC[C@@H]3CC3(F)F)ccc1Oc1ccc(-c3cncnc3)cc12` [Example 97, (4S)-2′-(((1S)-2,2-difluorocyclopropyl)methoxy)-7′-(5-pyrimidinyl)spiro[1,3-oxazole-4,9′-xanthen]-2-amine], for the setting “Table II”, the IC50 is under 100 nM. `COc1ccc(-c2cnc3c(c2)[C@]2(COC(N)=N2)c2cc(-c4cccnc4F)ccc2O3)cn1` [compound 344]: the IC50 under setting [1] is under 100 nM.

`CC(C)(C#Cc1cnc2c(c1)[C@]1(COC(N)=N1)c1cc(-c3cccnc3)ccc1O2)N1CCC1` [compound 320]: under setting [1], the IC50 was under 100 nM. On the same count and under the same terms, under `Cc1cncc(-c2ccc3c(c2)[C@@]2(COC(N)=N2)c2cc(-c4ccnc(C)c4)ncc2O3)c1` [compound 307] stands under 100 nM. Regarding `NC1=N[C@]2(CO1)c1cc(C#CC3CC3)ccc1Oc1ccc(-c3cncnc3)cc12` [Example 101, (4R)-2′-(cyclopropylethynyl)-7′-(5-pyrimidinyl)spiro[1,3-oxazole-4,9′-xanthen]-2-amine], the IC50 (Table II) was under 100 nM. Still for that read-out and setting: under `NC1=N[C@]2(CO1)c1cc(C#CC3CCCC3)ccc1Oc1ccc(-c3cncnc3)cc12` [Example 95, (4R)-2′-(cyclopentylethynyl)-7′-(5-pyrimidinyl)spiro[1,3-oxazole-4,9′-xanthen]-2-amine] stands under 100 nM.

As to `CC(C)(C)COc1cnc2c(c1)[C@]1(COC(N)=N1)c1cc(C#CC3(C)COC3)ccc1O2` [compound 323], the IC50 under setting [1] is under 100 nM.

`NC1=N[C@@]2(CO1)c1cc(-c3c(F)ccnc3F)ccc1Oc1ncc(C3=CCOCC3)cc12` [compound 321]: under setting [1], the IC50 is under 100 nM. Take `NC1=N[C@]2(CO1)c1cc(OCC3CCCCO3)ccc1Oc1ccc(-c3cncnc3)cc12` (stereo partly drawn) [Example 107, (4S)-2′-(5-pyrimidinyl)-7′-(tetrahydro-2H-pyran-2-ylmethoxy)spiro[1,3-oxazole-4,9′-xanthen]-2-amine]: for the setting “Table II”, the IC50 was under 100 nM.

Take `NC1=N[C@@]2(CO1)c1cc(-c3cncc(Cl)c3)ccc1Oc1cnc(-c3ccncc3)cc12` [compound 302]: under setting [1], the IC50 was under 100 nM.

In the case of `CC(C)(C)C#Cc1cnc2c(c1)[C@]1(COC(N)=N1)c1cc(OCC(C)(C)C#N)ccc1O2` [compound 319], the IC50 under setting [1] is under 100 nM. Consider `COc1ccc(-c2cnc3c(c2)[C@]2(COC(N)=N2)c2cc(OCC(C)(C)C#N)ccc2O3)cn1` [compound 341], for which the IC50 under setting [1] is under 100 nM. On the same count and under the same terms, then `NC1=N[C@@]2(CO1)c1cc(-c3cncc(Cl)c3)ccc1Oc1cnc(-c3cccnc3)cc12` [compound 303], with under 100 nM; and `CC1(C)CCN(c2cnc3c(c2)[C@]2(COC(N)=N2)c2cc(-c4cccnc4F)ccc2O3)C1` [compound 316], with under 100 nM. `Cc1ccc2c(c1)Oc1ccc(-c3ccc(OC(F)(F)F)cc3)cc1C21COC(N)=N1` (stereo not drawn) [Example 36, 6′-methyl-2′-(4-(trifluoromethoxy)phenyl)spiro[1,3-oxazole-4,9′-xanthen]-2-amine]: the IC50 (Table 1) was over 5000 nM. `Cc1cccc(-c2ccc3c(c2)C2(COC(N)=N2)c2ccc(C)cc2O3)c1` (stereo not drawn) [Example 33, 6′-methyl-2′-(3-methylphenyl)spiro[1,3-oxazole-4,9′-xanthen]-2-amine]: for the setting “Table 1”, the IC50 is over 5000 nM. Consider `Cc1cncc(-c2ccc3c(c2)[C@@]2(COC(N)=N2)c2cc(-c4ccncc4)ncc2O3)c1` [compound 305], for which the IC50 under setting [1] was under 100 nM. Take `COc1ccc2c(c1)[C@@]1(COC(N)=N1)c1cc(-c3cncnc3)ccc1O2` [Example 31, (4R)-2′-methoxy-7′-(5-pyrimidinyl)spiro[1,3-oxazole-4,9′-xanthen]-2-amine]: the IC50 (Table 1) was over 5000 nM.

In the case of `Cc1cc(-c2cc3c(cn2)Oc2ccc(-c4ccc(F)nc4)cc2[C@@]32COC(N)=N2)ccn1` [compound 313], under setting [1], the IC50 was under 100 nM. For the compound `Cc1ccc2c(c1)Oc1ccc(-c3ccccc3C)cc1C21COC(N)=N1` (stereo not drawn) [Example 34, 6′-methyl-2′-(2-methylphenyl)spiro[1,3-oxazole-4,9′-xanthen]-2-amine], the IC50 (Table 1) was over 5000 nM. As to `Cn1cc(-c2cnc3c(c2)[C@]2(COC(N)=N2)c2cc(-c4cccnc4F)ccc2O3)cn1` [compound 346], under setting [1], the IC50 is under 100 nM.

Turning to `Cc1ccc(-c2cnc3c(c2)[C@]2(COC(N)=N2)c2cc(-c4cccnc4F)ccc2O3)cn1` [compound 339], the IC50 under setting [1] was under 100 nM. `NC1=N[C@@]2(CO1)c1cc(-c3cccnc3F)ccc1Oc1cnc(-c3ccc(F)nc3)cc12` [compound 312]: under setting [1], the IC50 was under 100 nM. Still for that read-out and setting: under `CC1(C#Cc2cnc3c(c2)[C@]2(COC(N)=N2)c2cc(-c4cccnc4)ccc2O3)COC1` [compound 315] stands under 100 nM; under `CC(C)(C)C#Cc1cnc2c(c1)[C@]1(COC(N)=N1)c1cc(-c3cccc(C#N)c3)ccc1O2` [compound 318], under 100 nM; under `NC1=N[C@@]2(CO1)c1cc(-c3ccc(F)nc3)ccc1Oc1cnc(Cl)cc12` [compound 310], 100 to 1000 nM. The same measure, in the same setting: under `NC1=N[C@@]2(CO1)c1cc(-c3cccc(Cl)c3)ccc1Oc1ncc(C3=CCOCC3)cc12` [compound 322] stands under 100 nM.

For `NC1=N[C@]2(CO1)c1cc(OC[C@@H]3CCCO3)ccc1Oc1ccc(-c3cncnc3)cc12` [Example 105, (4S)-2′-(5-pyrimidinyl)-7′-((2S)-tetrahydro-2-furanylmethoxy)spiro[1,3-oxazole-4,9′-xanthen]-2-amine], the IC50 (Table II) was under 100 nM. In the case of `Cc1cncc(-c2ccc3c(c2)[C@@]2(COC(N)=N2)c2cc(-c4cccnc4)ncc2O3)c1` [compound 306], under setting [1], the IC50 was under 100 nM. In the case of `NC1=N[C@]2(CO1)c1cc(OC[C@H]3CC3(F)F)ccc1Oc1ccc(-c3cncnc3)cc12` [Example 98, (4S)-2′-(((1R)-2,2-difluorocyclopropyl)methoxy)-7′-(5-pyrimidinyl)spiro[1,3-oxazole-4,9′-xanthen]-2-amine], the IC50 (Table II) is under 100 nM. As to `CC(C)(C)C[C@H](O)c1ccc2c(c1)[C@]1(COC(N)=N1)c1cc(-c3cncnc3)ccc1O2` [Example 49, (1S)-1-((4S)-2-amino-7′-(5-pyrimidinyl)spiro[1,3-oxazole-4,9′-xanthen]-2′-yl)-3,3-dimethyl-1-butanol], where the note is “Table II”, the IC50 is under 100 nM. For `NC1=N[C@]2(CO1)c1cc(OC[C@H]3CCCO3)ccc1Oc1ccc(-c3cncnc3)cc12` [Example 106, (4S)-2′-(5-pyrimidinyl)-7′-((2R)-tetrahydro-2-furanylmethoxy)spiro[1,3-oxazole-4,9′-xanthen]-2-amine], the IC50 (Table II) is under 100 nM. Regarding `CC(C)(C#N)COc1ccc2c(c1)[C@@]1(COC(N)=N1)c1cc(-c3ccc(OC(F)(F)F)cc3)cnc1O2` [compound 342], the IC50 under setting [1] is under 100 nM. The same measure, in the same setting: then `NC1=N[C@@]2(CO1)c1cc(-c3ccc(F)nc3)ccc1Oc1cnc(-c3ccnc(F)c3)cc12` [compound 311], with under 100 nM. The same measure, in the same setting: then `NC1=N[C@@]2(CO1)c1cc(-c3cccc(Cl)c3)ccc1Oc1ncc(-c3ccncc3)cc12` [compound 345], with under 100 nM. Take `CC(C)(C)C#Cc1cnc2c(c1)[C@]1(COC(N)=N1)c1cc(-c3cncc(C#N)c3)ccc1O2` [compound 317]: the IC50 under setting [1] is under 100 nM. For the compound `NC1=N[C@]2(CO1)c1cc(C(=O)CC3CCCC3)ccc1Oc1ccc(-c3cncnc3)cc12` [Example 102, 1-((4S)-2-amino-7′-(5-pyrimidinyl)spiro[1,3-oxazole-4,9′-xanthen]-2′-yl)-2-cyclopentylethanone], for the setting “Table II”, the IC50 was under 100 nM. `CC(C)(C#N)COc1ccc2c(c1)[C@@]1(COC(N)=N1)c1cc(-c3ccc(C#N)cc3)cnc1O2` [compound 340]: under setting [1], the IC50 is under 100 nM.

As to `Cc1cncc(-c2ccc3c(c2)[C@@]2(COC(N)=N2)c2cc(C4CCOCC4)ncc2O3)c1` [compound 308], the IC50 under setting [1] is under 100 nM. `NC1=NC2(CO1)c1cc(Cl)ccc1Oc1ccc(-c3cncnc3)cc12` (stereo not drawn) [Example 13, 2′-chloro-7′-(5-pyrimidinyl)spiro[1,3-oxazole-4,9′-xanthen]-2-amine]: where the note is “Table 1”, the IC50 was in the range of 100 to 1000 nM. In the case of `CC1(C#Cc2cnc3c(c2)[C@]2(COC(N)=N2)c2cc(-c4cccc(Cl)c4)ccc2O3)COC1` [compound 314], under setting [1], the IC50 was under 100 nM. Take `NC1=N[C@]2(CO1)c1cc(OCC3CCCO3)ccc1Oc1ccc(-c3cccnc3)cc12` (stereo partly drawn) [Example 99, (4S)-2′-(3-pyridinyl)-7′-(tetrahydro-2-furanylmethoxy)spiro[1,3-oxazole-4,9′-xanthen]-2-amine]: the IC50 (Table II) was under 100 nM.

The record behind these values is patent publication US8426447B2, “Spiro-tricyclic ring compounds as beta-secretase modulators and methods of use” (Amgen Inc., priority 2008, dated 2013).
